Data from US8603527B2, “Pharmaceutical formulations of a substituted diaminopurine” (Signal Pharmaceuticals, LLC, priority 2010, dated 2013).

Test: Pharmacokinetics (plasma and urine) of ascending multiple oral doses in healthy volunteers
Format: in vivo, human
Set-up: Cmax: unit: ng/mL
Conditions: for AUC(0-∞) / Cmax / Ctrough / RA (ratio of accumulation) / t1/2 / Tmax: Day 14 (N = 8); for AUC(0-∞) / Cmax / Ctrough / RA (ratio of accumulation) / t1/2 / AUC(0-τ): geometric mean; for Tmax: median; for AUC(0-τ): Day 14, τ = 24 hours (N = 8)
Description: Subjects: Forty healthy male and female subjects between the ages of 20 and 50 were enrolled in the study. All subjects were in good health as determined by a medical history, physical examination, 12-lead ECG, serum biochemistry, hematology, urinalysis and virology. Subjects were not permitted to take any prescribed medication within 30 days or non-prescribed medication within 7 days of the first dose administration.
Study Design: This study was a randomized, double-blind, placebo-controlled, ascending-dose trial to evaluate the safety, tolerability and pharmacokinetics (PK) of multiple oral doses of Compound I. Subjects were enrolled into 1 of the 4 cohorts, 10 subjects per cohort (active:placebo=8:2). Subjects received a multiple oral dose of 25, 50, 100, or 200 mg unformulated Compound I in a capsule, or matching placebo, once daily (QD) for 14 days.
Assessments: Safety and tolerability were assessed by adverse event (AE) monitoring, clinical laboratory testing, vital sign measurement, 12-lead ECG measurement, concomitant medication assessment, and physical examination. Blood and urine samples were collected to assess the PK profile of Compound I and the S-cis isomer of Compound I. Blood samples (˜5 mL) for plasma PK analysis were collected in K2-EDTA vacutainer tubes to yield approximately 2 mL of plasma at each of the following time points: (i) Day 1: before dosing, and 0.25, 0.5, 1, 1.5, 2, 2.5, 3, 4, 6, 8, 10, 12, 16, and 24 hours after dosing; (ii) Day 3 to Day 9: before dosing; (iii) Day 10: before dosing, and 0.25, 0.5, 1, 1.5, 2, 2.5, 3, 4, 6, 8, 10, 12, and 16 hours after dosing; (iv) Day 11 to Day 13: before dosing; (v) Day 14: before dosing, and 0.25, 0.5, 1, 1.5, 2, 2.5, 3, 4, 6, 8, 10, 12, 16, 24, 48, 72, 96, 120, 144, and 168 hours after dosing. Urine samples for the PK analysis were collected as a single block at: (i) Day 1: before dosing (spot collection), 0 to 8, 8 to 16, and 16 to 24 hours after dosing; and (ii) Day 14: 0 to 8, 8 to 16, and 16 to 24 hours after dosing. Both plasma and urine concentrations of Compound I and its S-cis isomer were measured using validated liquid chromatography-tandem mass spectrometry (LC/MS/MS).
Data Analysis: Safety data were summarized using descriptive statistics by treatment. PK parameters for Compound I and its S-cis isomer were calculated using non-compartmental analysis using WinNonlin (Version 5.0.1 or greater; Pharsight Corporation, Mountain View, Calif.). Dose proportionality and dose independence were evaluated by visual inspection. Intra-subject variability was assessed using an ANOVA model using data from Days 10 and 14.

[1] = S-cis isomer in plasma after Compound I 25 mg QD
[2] = S-cis isomer in plasma after Compound I 50 mg QD
[3] = S-cis isomer in plasma after Compound I 100 mg QD
[4] = S-cis isomer in plasma after Compound I 200 mg QD

In the case of OC1CCC(Nc2ncc3nc(Nc4c(F)cc(F)cc4F)n(C4CCOC4)c3n2)CC1 (stereo not drawn) [S-cis isomer of Compound I], the “AUC(0-∞)” value [1] is reported as 180.14 ng·h/mL, the Cmax [1] is reported as 5.43 ng/mL and the Ctrough [1] is reported as 2.33 ng/mL. The “RA (ratio of accumulation)” value [1] was 2.02, the t1/2 [1] was 28.82 h and the Tmax [1] was 2.5 h. The “AUC(0-τ)” value [1] was 78.40 ng·h/mL, the “AUC(0-∞)” value [2] was 365.88 ng·h/mL and the Cmax [2] was 11.61 ng/mL. For the same compound, the Ctrough [2] was 4.93 ng/mL, the “RA (ratio of accumulation)” value [2] was 2.28 and the t1/2 [2] was 25.39 h. For the same compound, the Tmax [2] was 3.0 h, the “AUC(0-τ)” value [2] was 177.01 ng·h/mL and the “AUC(0-∞)” value [3] was 541.06 ng·h/mL. The Cmax [3] was 14.87 ng/mL, the Ctrough [3] was 7.14 ng/mL and the “RA (ratio of accumulation)” value [3] was 1.88. The t1/2 [3] was 28.17 h, the Tmax [3] was 2.5 h and the “AUC(0-τ)” value [3] was 237.26 ng·h/mL. For the same compound, the “AUC(0-∞)” value [4] was 804.07 ng·h/mL, the Cmax [4] was 27.69 ng/mL and the Ctrough [4] was 10.90 ng/mL. For the same compound, the “RA (ratio of accumulation)” value [4] was 1.50, the t1/2 [4] was 23.93 h and the Tmax [4] was 2.5 h. The “AUC(0-τ)” value [4] was 404.33 ng·h/mL and the “systemic exposure relative to that of Compound I” value (after Compound I QD dosing) was “about 2%”.
